The values that follow come from PMC8252718, “carba Nicotinamide Adenine Dinucleotide Phosphate: Robust Cofactor for Redox Biocatalysis” (Angewandte Chemie (International Ed. in English), 2021).

Common to all, as to assay: activity assay
What all share (format): biochemical

Test [1] deals with T1, CHMO (Acinetobacter johnsonii, UniProt P12015).
T1 construct: gene chnB; details only in supplement

The target of test [2] is T2, AspRedAm (Aspergillus oryzae, UniProt Q2TW47).
T2 construct: gene AO090010000708; details only in supplement
T2 sequence (Q2TW47 1-295): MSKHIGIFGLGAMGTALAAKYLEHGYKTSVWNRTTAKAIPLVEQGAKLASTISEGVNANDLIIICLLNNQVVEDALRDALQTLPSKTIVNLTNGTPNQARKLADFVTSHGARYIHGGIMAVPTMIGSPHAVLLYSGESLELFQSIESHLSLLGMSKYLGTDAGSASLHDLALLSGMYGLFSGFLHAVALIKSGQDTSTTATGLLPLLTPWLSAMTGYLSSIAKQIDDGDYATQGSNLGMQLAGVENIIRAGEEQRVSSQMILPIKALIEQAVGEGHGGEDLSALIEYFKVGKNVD
The note with it: 100 mM Tris-HCl pH 8.2, 5 mM hexanal, 10 mM amine, 1 mM cofactor, 30 °C.

The target of test [3] is T3, TsER (Thermus scotoductus, UniProt B0JDW3).
T3 construct: gene chrR; details only in supplement

T1 sequence (P12015 whole entry): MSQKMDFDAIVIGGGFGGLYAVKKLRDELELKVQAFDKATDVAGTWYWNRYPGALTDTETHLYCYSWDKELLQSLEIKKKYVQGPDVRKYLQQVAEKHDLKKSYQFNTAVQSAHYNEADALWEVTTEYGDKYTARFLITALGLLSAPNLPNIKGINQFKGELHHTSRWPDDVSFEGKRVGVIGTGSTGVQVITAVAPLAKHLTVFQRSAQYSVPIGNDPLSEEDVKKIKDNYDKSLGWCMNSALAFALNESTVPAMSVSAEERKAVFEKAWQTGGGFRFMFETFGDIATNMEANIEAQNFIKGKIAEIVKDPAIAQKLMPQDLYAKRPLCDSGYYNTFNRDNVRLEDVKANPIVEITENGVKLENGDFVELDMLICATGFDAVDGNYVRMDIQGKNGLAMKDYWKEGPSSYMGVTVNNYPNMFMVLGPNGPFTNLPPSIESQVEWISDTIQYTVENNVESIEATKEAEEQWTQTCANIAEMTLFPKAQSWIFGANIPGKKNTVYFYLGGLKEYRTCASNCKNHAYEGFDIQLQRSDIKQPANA

As to `NC(=O)C1=CN([C@@H]2C[C@H](COP(=O)(O)OP(=O)(O)OC[C@H]3O[C@@H](n4cnc5c(N)ncnc54)[C@H](OP(=O)(O)O)[C@@H]3O)[C@@H](O)[C@H]2O)C=CC1` [carba-NADPH], the activity assay result is “two Baeyer‐Villiger‐monoxygenases (CHMO and HAPMO)” in test [1]; “Both gave comparable results with the natural and carba cofactor” in test [2]; “enoate reductase (TsER from Thermus scotoductus)” in test [3].
